Reference: US12655174B2, “Adenosine A3 receptor agonists, preparation methods and uses thereof” (ZHEJIANG VIMGREEN PHARMACEUTICALS, LTD., priority 2020, dated 2026)

Assay: Pharmacokinetic test of compound in SD rat
Type: in vivo
Settings: SD rats, intragastric administration (IG), cassette dosing
Protocol: Example 28: Pharmacokinetic Test of Compound in SD Rat
The animal species used in this experiment were SD rats. There were 3 animals per group. The rats were dosed in cassette format, i.e., multiple (1-6) different compounds were dosed simultaneously to the same group of the SD rats. The vehicle used for the drug was 5% DMSO+5% Solutl+90% ([…] methylcellulose M450), and the administration route was intragastric administration (IG).

Structure (SMILES) | AUC_D [kg·ng·h/mL/mg]
CNC(=O)[C@H]1O[C@@H](n2cnc3c(NCc4ccccc4)nc(-c4cncc(F)c4)nc32)[C@H](O)[C@@H]1O [compound 153, (2S,3S,4R,5R)-5-(6-(benzylamino)-2-(5-fluoropyridin-3-yl)-9H-purin-9-yl)-3,4-dihydroxyl-N-methyltetrahydrofuran-2-carboxamide] | 829.00
CCOc1cncc(-c2nc(NCc3ccccc3)c3ncn([C@@H]4O[C@H](C(=O)NC)[C@@H](O)[C@H]4O)c3n2)c1 [compound 158, (2S,3S,4R,5R)-5-(6-(benzylamino)-2-(5-ethoxypyridin-3-yl)-9H-purin-9-yl)-3,4-dihydroxyl-N-methyltetrahydrofuran-2-carboxamide] | 602.00
[2H]C([2H])([2H])NC(=O)[C@H]1O[C@@H](n2cnc3c(NCc4cccc(C)c4)nc(-c4cncc(F)c4)nc32)[C@H](O)[C@@H]1O [compound 162, (2S,3S,4R,5R)-5-(2-(5-fluoropyridin-3-yl)-6-((3-methylbenzyl)amino)-9H-purin-9-yl)-3,4-dihydroxyl-N-(methyl-d3)-tetrahydrofuran-2-carboxamide] | 1156.15
[2H]C([2H])([2H])NC(=O)[C@H]1O[C@@H](n2cnc3c(NCc4cccc(C)c4)nc(-c4cncc(Cl)c4)nc32)[C@H](O)[C@@H]1O [compound 164, (2S,3S,4R,5R)-5-(6-(m-methylphenylmethylamino)-2-(5-chloropyridin-3-yl)-9H-purin-9-yl)-3,4-dihydroxyl-N-(methyl-d3)-tetrahydrofuran-2-formamide] | 845.57
[2H]C([2H])([2H])NC(=O)[C@H]1O[C@@H](n2cnc3c(NCc4ccc(C(F)(F)F)cc4)nc(-c4cncc(Cl)c4)nc32)[C@H](O)[C@@H]1O [compound 165, (2S,3S,4R,5R)-5-(6-(4-(trifluoromethyl)benzylamino)-2-(5-chloropyridin-3-yl)-9H-purin-9-yl)-3,4-dihydroxyl-N-(methyl-d3)-tetrahydrofuran-2-formamide] | 564.70
[2H]C([2H])([2H])NC(=O)[C@H]1O[C@@H](n2cnc3c(NCc4ccc(Cl)cc4)nc(-c4cncc(Cl)c4)nc32)[C@H](O)[C@@H]1O [compound 168, (2S,3S,4R,5R)-5-(6-(4-chlorobenzylamino)-2-(5-chloropyridin-3-yl)-9H-purin-9-yl)-3,4-dihydroxyl-N-(methyl-d3)-tetrahydrofuran-2-formamide] | 1551.15
CNC(=O)[C@H]1O[C@@H](n2cnc3c(NCc4cccc(C(F)(F)F)c4)nc(-c4cncc(F)c4)nc32)[C@H](O)[C@@H]1O [compound 180, (2S,3S,4R,5R)-5-(6-(3-(trifluoromethyl)benzylamino)-2-(5-fluoropyridin-3-yl)-9H-purin-9-yl)-3,4-dihydroxyl-N-methyl-tetrahydrofuran-2-formamide] | 81.74
CNC(=O)[C@H]1O[C@@H](n2cnc3c(NCc4cccc(C(F)(F)F)c4)nc(-c4cncc(OC)c4)nc32)[C@H](O)[C@@H]1O [compound 181, (2S,3S,4R,5R)-5-(6-(3-(trifluoromethyl)benzylamino)-2-(5-methoxypyridin-3-yl)-9/-purin-9-yl)-3,4-dihydroxyl-N-methyl-tetrahydrofuran-2-formamide] | 72.67
[2H]C([2H])([2H])NC(=O)[C@H]1O[C@@H](n2cnc3c(NCC(F)(F)F)nc(-c4cncc(Cl)c4)nc32)[C@H](O)[C@@H]1O [compound 202] | 138.00
CNC(=O)[C@H]1O[C@@H](n2cnc3c(NCc4cccc(Cl)c4)nc(-c4cncc(Cl)c4)nc32)[C@H](O)[C@@H]1O [compound 209, (2S,3S,4R,5R)-5-(6-((3-chlorobenzyl))amino-2-(5-chloropyridin-3-yl)-9H-purin-9-yl)-3,4-dihydroxyl-N-methyltetrahydrofuran-2-carboxamide] | 1347.60
CNC(=O)[C@H]1O[C@@H](n2cnc3c(NCc4cccc(F)c4)nc(-c4cncc(Cl)c4)nc32)[C@H](O)[C@@H]1O [compound 210, (2S,3S,4R,5R)-5-(2-(5-chloropyridin-3-yl)-6-((3-fluorobenzyl))amino-9H-purin-9-yl)-3,4-dihydroxyl-N-methyltetrahydrofuran-2-carboxamide] | 580.90
[2H]C([2H])([2H])NC(=O)[C@H]1O[C@@H](n2cnc3c(NCc4cc(Cl)ccn4)nc(-c4cncc(Cl)c4)nc32)[C@H](O)[C@@H]1O [compound 214] | 765.47
[2H]C([2H])([2H])NC(=O)[C@H]1O[C@@H](n2cnc3c(NCc4cc(C)ccn4)nc(-c4cncc(Cl)c4)nc32)[C@H](O)[C@@H]1O [compound 215] | 785.90
[2H]C([2H])([2H])NC(=O)[C@H]1O[C@@H](n2cnc3c(NCc4cccc(C#N)c4)nc(-c4cncc(Cl)c4)nc32)[C@H](O)[C@@H]1O [compound 221, (2S,3S,4R,5R)-5-(2-(5-chloropyridin-3-yl)-6-((3-cyanobenzyl)amino)-9H-purin-9-yl)-3,4-dihydroxyl-N-(methyl-d3)-tetrahydrofuran-2-carboxamide] | 278.77
[2H]C([2H])([2H])NC(=O)[C@H]1O[C@@H](n2cnc3c(NCc4cc(C)ccc4F)nc(-c4cncc(Cl)c4)nc32)[C@H](O)[C@@H]1O [compound 225, (2S,3S,4R,5R)-5-(2-(5-chloropyridin-3-yl)-6-((2-fluoro-5-methylbenzyl)amino)-9H-purin-9-yl)-3,4-dihydroxyl-N-(methyl-d3)-tetrahydrofuran-2-carboxamide] | 11356.86
[2H]C([2H])([2H])NC(=O)[C@H]1O[C@@H](n2cnc3c(NCc4cccnc4)nc(-c4cncc(Cl)c4)nc32)[C@H](O)[C@@H]1O [compound 235, (2S,3S,4R,5R)-5-(2-(5-chloropyridin-3-yl)-6-(pyridin-3-ylmethylamino)-9H-purin-9-yl)-3,4-dihydroxyl-N-(methyl-d3)-tetrahydrofuran-2-carboxamide] | 1456.00
[2H]C([2H])([2H])NC(=O)[C@H]1O[C@@H](n2cnc3c(NCc4cc(Cl)cc(Cl)c4)nc(-c4cncc(Cl)c4)nc32)[C@H](O)[C@@H]1O [compound 240, (2S,3S,4R,5R)-5-(2-(5-chloropyridin-3-yl)-6-(3,5-dichlorobenzylamino)-9H-purin-9-yl)-3,4-dihydroxyl-N-(methyl-d3)-tetrahydrofuran-2-carboxamide] | 1024.58
[2H]C([2H])([2H])NC(=O)[C@H]1O[C@@H](n2cnc3c(NCc4cc(F)cc(Cl)c4)nc(-c4cncc(Cl)c4)nc32)[C@H](O)[C@@H]1O [compound 241, (2S,3S,4R,5R)-5-(6-(3-chloro-5-fluorobenzylamino)-2-(5-chloropyridin-3-yl)-9H-purin-9-yl)-3,4-dihydroxyl-N-(methyl-d3)-tetrahydrofuran-2-carboxamide] | 440.67
CCNC(=O)[C@H]1O[C@@H](n2cnc3c(NCc4ccccc4)nc(-c4cncc(Cl)c4)nc32)[C@H](O)[C@@H]1O [compound 242, (2S,3S,4R,5R)-5-(6-(benzylamino)-2-(5-chloropyridin-3-yl)-9H-purin-9-yl)-N-ethyl-3,4-dihydroxyltetrahydrofuran-2-carboxamide] | 811.33
[2H]C([2H])([2H])NC(=O)[C@H]1O[C@@H](n2cnc3c(NCc4cccc(Br)c4)nc(-c4cncc(Cl)c4)nc32)[C@H](O)[C@@H]1O [compound 248, (2S,3S,4R,5R)-5-(6-((3-bromobenzyl)amino)-2-(5-chloropyridin-3-yl)-9H-purin-9-yl)-3,4-dihydroxyl-N-(methyl-d3)tetrahydrofuran-2-carboxamide] | 3298.00
[2H]C([2H])([2H])NC(=O)[C@H]1O[C@@H](n2cnc3c(NCc4cccc(I)c4)nc(-c4cncc(Cl)c4)nc32)[C@H](O)[C@@H]1O [compound 250, (2S,3S,4R,5R)-5-(2-(5-chloropyridin-3-yl)-6-((3-iodobenzyl)amino)-9H-purin-9-yl)-3,4-dihydroxyl-N-(methyl-d3)tetrahydrofuran-2-carboxamide] | 2137.00
[2H]C([2H])([2H])NC(=O)[C@H]1O[C@@H](n2cnc3c(N[C@H](C)c4ccccc4)nc(-c4cncc(Cl)c4)nc32)[C@H](O)[C@@H]1O [compound 251] | 610.00
[2H]C([2H])([2H])NC(=O)[C@H]1O[C@@H](n2cnc3c(N[C@@H](C)c4ccccc4)nc(-c4cncc(Cl)c4)nc32)[C@H](O)[C@@H]1O [compound 252] | 532.00
[2H]C([2H])([2H])NC(=O)[C@H]1O[C@@H](n2cnc3c(NCc4cscn4)nc(-c4cncc(Cl)c4)nc32)[C@H](O)[C@@H]1O [compound 253, (2S,3S,4R,5R)-5-(2-(5-chloropyridin-3-yl)-6-((thiazol-4-ylmethyl)amino)-9H-purin-9-yl)-3,4-dihydroxyl-N-(methyl-d3)tetrahydrofuran-2-carboxamide] | 299.00
[2H]C([2H])([2H])NC(=O)[C@H]1O[C@@H](n2cnc3c(NCc4cocn4)nc(-c4cncc(Cl)c4)nc32)[C@H](O)[C@@H]1O [compound 257, (2S,3S,4R,5R)-5-(2-(5-chloropyridin-3-yl)-6-((oxazol-4-ylmethyl)amino)-9H-purin-9-yl)-3,4-dihydroxyl-N-(methyl-d3)tetrahydrofuran-2-carboxamide] | 96.00
[2H]C([2H])([2H])NC(=O)[C@H]1O[C@@H](n2cnc3c(NCc4cccc(OC)c4)nc(-c4cncc(Cl)c4)nc32)[C@H](O)[C@@H]1O [compound 265, (2S,3S,4R,5R)-5-(2-(5-chloropyridin-3-yl)-6-(3-methoxybenzylamino)-9H-purin-9-yl)-3,4-dihydroxyl-N-(methyl-d3)-tetrahydrofuran-2-carboxamide] | 764.50
